The values that follow come from US9463188B2, “Osteopontin production inhibitor containing dictyopyrone derivative or dihydrodictyopyrone derivative as active ingredient” (TOHOKU UNIVERSITY, priority 2013, dated 2016).

In this test the test system is A549/OPNluc cells. Put plainly: WST assay (cell growth inhibition). Type of test: cell-based. The following applies: Homo sapiens, 48±4 hours, WST-1, read-out: IC50 (concentration for 50% inhibition of cell growth). An excerpt: A reporter vector pOPN1-luc obtained by inserting a human OPN promoter sequence (−765 to 23) into the multiple cloning site of pGL-3 basic vector (Promega) expresses luciferase when transfected into animal cells. This pOPN1-luc was transfected into a human non-small cell lung cancer-derived cell line A549 together with pPUR (Clontech) that expresses a puromycin resistance gene (puromycin-N-acetyl-transferase gene), and cells that could grow in a puromycin-supplemented medium and expressed luciferase were selected. The selected cells were named A549/OPNluc cells and used for observation of luciferase expression inhibitory effect under control of OPN promoter, as described later.
A test compound was added to a culture liquid containing A549/OPNluc cells to observe its influence on the amount of luciferase expressed in the cells. Here, it can be considered that when the test compound has cytotoxity or cell growth-suppressing effect, the total expression level of luciferase is reduced due to a reduction in the number of living cells that depends on the concentration of the test compound, and therefore the luciferase expression inhibitory effect of the test compound under control of OPN promoter cannot be properly evaluated. For this reason, WST assay for quantification of cell proliferation ability or cell viability by colorimetric measurement was first performed to determine IC50 (concentration for 50% inhibition of cell growth) of the test compound for cell growth. Then, luciferase activity measurement was performed to determine EC50 (concentration for 50% inhibition of luciferase expression) of the test compound for luciferase expression under control of OPN promoter.
A549/OPNluc cells were suspended in DMEM medium containing 10% fetal calf serum (FCS) and 1% penicillin/streptomycin (P/S) at 3×10^4 cells/mL to obtain a cell suspension, and 100 μL of the cell suspension was dispensed into each well of a 96-well plate. In order to perform the assay in triplicate, 3 wells were prepared for a control group and 3 wells were prepared for each test compound-treated group at each concentration. After the dispensing, the 96-well plate was incubated in a CO2 incubator (at 37° C. and 5% CO2) for 24±4 hours.
The test compound was dissolved in dimethylsulfoxide (DMSO) to obtain a 50 mmol/L solution, and the test compound solution was stored at −80° C. The test compound solution was diluted with DMSO in 2-fold dilution series (usually, in the range of 0.31 mmol/L to 20 mmol/L) to prepare test compound solutions whose concentration varied by two fold for WST assay.
Only DMSO (control) or the diluted test compound (sample) solution was dispensed in an amount of 0.5 μL into each well containing the cell suspension (200-fold dilution). The solution in each well was mixed with a vortex mixer, and then the 96-well plate was incubated in a CO2 incubator (at 37° C. and 5% CO2) for 48±4 hours. Then, 10 μL of Premix WST-1 Reagent (TAKARA BIO INC.) was added to each well. The solution in each well was mixed with a vortex mixer, and then the 96-well plate was incubated at 37° C. and 5% CO2. After 60 minutes or 120 minutes, absorbance values (450 nm) were measured using a microplate reader (Bio-Rad; Benchmark or Thermo Scientific; Varioskan Flash).
The absorbance values of the control wells and the absorbance values of the sample wells at each concentration were input into an Excel file to determine the percentages of absorbance values of the sample wells at each concentration with respect to the average of absorbance values of the control wells. From the determined values, a fitted curve was determined by the method of least squares to calculate IC50.
For orientation: Tetrazolium assays rely on reduction of a dye to a coloured formazan, in cell work by metabolically active cells.

Regarding `CCCCCCCCCCCC(=O)[C@H]1C(=O)O[C@@H](C)C[C@@H]1C` [Chemical formula 3], the IC50 was found to be 56.2 µM.
